{"source": "patent US6653340B1", "about": "“Compounds useful in the complement, coagulat and kallikrein pathways and method for their preparation” (BioCryst Pharmaceuticals, Inc., priority 1997, dated 2003)", "key": {"[1]": {"biological_target": "T1, factor XIIa (Homo sapiens, UniProt P00748)", "T1 sequence (P00748 373-615 limits assumed)": "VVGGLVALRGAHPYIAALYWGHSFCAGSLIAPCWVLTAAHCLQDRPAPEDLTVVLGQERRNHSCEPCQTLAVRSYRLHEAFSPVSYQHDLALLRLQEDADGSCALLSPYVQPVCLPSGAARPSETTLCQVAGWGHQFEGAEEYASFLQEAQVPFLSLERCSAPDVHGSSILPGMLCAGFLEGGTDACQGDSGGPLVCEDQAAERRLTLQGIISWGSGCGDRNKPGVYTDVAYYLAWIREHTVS", "assay": "Factor XIIa inhibition assay (thioester substrate)", "assay_type": "biochemical", "conditions": "read-out: XIIa (Serine Protease Inhibitory Data, IC50)", "method": "(§1) The compounds to be tested were dissolved in a stock solution of DMSO at 10.0 or 100 mM. A portion of this stock solution was added to assay buffer in a final volume of 100 μL containing the enzyme of interest. Controls included buffer alone and enzyme solutions to which DMSO was added. Substrate was added to the reaction wells immediately or after incubation at room temperature. The reaction rates were measured spectrophotometrically by the generation of product at 405 nm for 200 sec. Background absorbance at 690 nm was measured and subtracted from the absorbance at 405 nm for each well.\n(§2) The reaction rate for enzyme alone was compared to the rate of enzyme in the presence of inhibitor and the percent inhibition was calculated as shown below:\n(§3) Percent Inhibition=[Rate without inhibitor−Rate with inhibitor)/(Rate without inhibitor)]×100\n(§4) Compounds in the examples were tested a minimum of three times.\n(§5) Thrombin was assayed at 12.5 U/ml using 0.37 mM N-Benzoyl-Phe-Val-Arg-p-nitroanilide (Svendsen, L.; Blomback B.; Blomback, M.; Olsson, P. I. Substrate for determination of trypsin, thrombin and thrombin-like enzymes. Folia Haematol. 1972, 98, 446-454.) as the substrate in 100 mM HEPES, 10 mM CaCl2, 10% DMSO, pH 7.5. Factor Xa, 0.5 U/mL, was assayed in 50 mM HEPES, 150 mM NaCl, 10 mM CaCl2, pH 8.0 using Chromozyme X, 0.17 mM, as the substrate. Plasmin (0.004 units/mL), factor XIIa ([…]) and kallikrein (0.02 units/mL were assayed using modifications of the techniques originally described by McRae, et al. (Biochemistry. 1981, 20, 7196-7206). The assays were run in 200 mM triethanolamine, pH 7.8 and 100 mM Tris-HCl, 100 mM EDTA, […] using Z-Lys-SBzl, 0.13 mM and […], 0.16 mM, as substrates, respectively."}, "[2]": {"biological_target": "T2, Factor D (Homo sapiens, UniProt P00746)", "T2 sequence (P00746 26-253)": "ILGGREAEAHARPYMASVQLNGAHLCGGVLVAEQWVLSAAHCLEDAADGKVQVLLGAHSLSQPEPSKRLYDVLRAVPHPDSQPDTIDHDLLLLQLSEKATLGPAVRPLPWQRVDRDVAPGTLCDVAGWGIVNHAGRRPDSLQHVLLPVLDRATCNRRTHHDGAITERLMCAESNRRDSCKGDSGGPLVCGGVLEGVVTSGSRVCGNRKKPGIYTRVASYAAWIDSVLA", "assay": "Factor D esterolytic inhibition assay (Z-Lys-SBzl substrate)", "assay_type": "biochemical", "set-up": "Factor D was purified from the urine of a patient with Fanconi syndrome by ion exchange chromatography; from tissue; host or cells: urine of a patient with Fanconi syndrome", "conditions": "Z-Lys-SBzl 1.29 mM, pH 7.5, 10% DMSO; read-out: Factor D (Serine Protease Inhibitory Data, IC50)", "description": "A modification of the procedure of Volanakis (Volankis, J. E.; Barnum, S. R.; Kilpatrick, J. M. Purification and properties of human factor D. Methods in Enzymol. 1993, 223, 82-97) for purification of Factor D was utilized as described by Yamauchi (Yamauchi, Y.; Stevens, J. W.; Macon, K. J.; Volanakis, J. E. Recombinant and native zymogen forms of human complement factor D. J. Immunol. 1994, 152, 3645-3653. Briefly, Factor D was purified from the urine of a patient with Fanconi syndrome by ion exchange chromatography using BioRex 70 and two rounds of ion-exchange chromatography in a Pharmacia FPLC system using a HR5/5 Mono S column.\nas §1, §2, §3, §4\nAn established esterolytic assay for the measurement of Factor D activity and inhibition of Factor D activity was used (Kam, C. M.; McRae, B. J.; Harper, J. W.; Niemann, M. A.; Volanakis, J. E.; Powers, J. C. Human complement proteins D, C2, and B Active site mapping with peptide thioester substrates. J Biol. Chem. 1987, 262, 3444-3451). […] Hydrolysis of this compound by Factor D liberated a free sulfhydryl group which is then reacted with 5,5′-dithiobis(2nitrobenzoic acid) producing an intense yellow color (Habeeb, A. F. S. A. Reaction of protein sulfhydryl groups with Ellman's Reagent. Methods in Enzymol. 1976, 25, 457-464.). The assays were performed in 96 well microtiter plates and rates of hydrolysis were monitored at 405 nm in a Anthos Labtec HT2 plate reader. Hydrolysis rates were reported as change in mOD/min. The assay was conducted in 100 mM HEPES, 500 mM NaCl, pH 7.5 containing 10% DMSO in a final volume of 200 μL per well."}, "[3]": {"biological_target": "Factor Xa (Homo sapiens, UniProt P00742)", "sequence (P00742 235-488 limits assumed)": "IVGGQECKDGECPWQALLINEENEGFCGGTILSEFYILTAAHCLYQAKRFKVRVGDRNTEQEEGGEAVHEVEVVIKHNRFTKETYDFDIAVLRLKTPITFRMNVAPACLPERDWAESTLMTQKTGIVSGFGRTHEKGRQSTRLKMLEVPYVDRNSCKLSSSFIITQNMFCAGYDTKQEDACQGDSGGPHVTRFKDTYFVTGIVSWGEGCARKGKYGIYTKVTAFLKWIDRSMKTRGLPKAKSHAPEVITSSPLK", "sequence (P00742 41-179 partner limits assumed)": "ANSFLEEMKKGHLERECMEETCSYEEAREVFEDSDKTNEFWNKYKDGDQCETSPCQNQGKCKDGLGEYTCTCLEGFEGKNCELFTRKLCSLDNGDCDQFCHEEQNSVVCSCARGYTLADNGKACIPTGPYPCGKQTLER", "assay": "Factor Xa inhibition assay (Chromozyme X substrate)", "assay_type": "biochemical", "conditions": "Factor Xa 0.5 U/mL, pH 8.0; read-out: Xa (Serine Protease Inhibitory Data, IC50)", "method": "as §1, §2, §3, §4, §5"}, "[4]": {"biological_target": "T3, C1s (Homo sapiens, UniProt P09871)", "T3 sequence (P09871 16-688)": "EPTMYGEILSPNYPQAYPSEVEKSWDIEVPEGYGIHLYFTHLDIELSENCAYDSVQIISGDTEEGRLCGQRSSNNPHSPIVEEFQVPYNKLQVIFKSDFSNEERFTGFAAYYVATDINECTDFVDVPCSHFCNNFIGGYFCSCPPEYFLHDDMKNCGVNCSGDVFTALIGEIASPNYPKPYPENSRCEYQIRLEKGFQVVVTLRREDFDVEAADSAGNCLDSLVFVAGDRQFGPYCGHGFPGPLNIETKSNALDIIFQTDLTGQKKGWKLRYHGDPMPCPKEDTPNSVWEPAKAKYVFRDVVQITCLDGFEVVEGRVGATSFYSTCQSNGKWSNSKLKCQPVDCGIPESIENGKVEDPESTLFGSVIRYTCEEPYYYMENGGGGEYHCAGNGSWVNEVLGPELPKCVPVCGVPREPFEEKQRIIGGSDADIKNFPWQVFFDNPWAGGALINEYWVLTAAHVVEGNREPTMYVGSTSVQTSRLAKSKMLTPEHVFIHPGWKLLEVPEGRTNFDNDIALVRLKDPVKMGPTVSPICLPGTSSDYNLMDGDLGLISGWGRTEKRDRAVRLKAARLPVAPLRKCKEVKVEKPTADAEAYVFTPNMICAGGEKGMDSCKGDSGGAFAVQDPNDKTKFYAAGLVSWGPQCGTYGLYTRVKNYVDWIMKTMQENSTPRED", "assay": "C1s esterolytic inhibition assay (Z-Lys-SBzl substrate)", "assay_type": "biochemical", "conditions": "Z-Lys-SBzl 1.29 mM, C1s 3 to 13 nM; read-out: Cls (Serine Protease Inhibitory Data, IC50)", "method": "as §1, §2, §3, §4\nC1s esterolytic activity was assayed using a modification of the technique originally described by Kam using Z-Lys-SBzl, 1.29 mM as substrate and C1s at 3 to 13 nM."}, "[5]": {"biological_target": "kallikrein (Homo sapiens, UniProt P03952)", "sequence (P03952 whole entry)": "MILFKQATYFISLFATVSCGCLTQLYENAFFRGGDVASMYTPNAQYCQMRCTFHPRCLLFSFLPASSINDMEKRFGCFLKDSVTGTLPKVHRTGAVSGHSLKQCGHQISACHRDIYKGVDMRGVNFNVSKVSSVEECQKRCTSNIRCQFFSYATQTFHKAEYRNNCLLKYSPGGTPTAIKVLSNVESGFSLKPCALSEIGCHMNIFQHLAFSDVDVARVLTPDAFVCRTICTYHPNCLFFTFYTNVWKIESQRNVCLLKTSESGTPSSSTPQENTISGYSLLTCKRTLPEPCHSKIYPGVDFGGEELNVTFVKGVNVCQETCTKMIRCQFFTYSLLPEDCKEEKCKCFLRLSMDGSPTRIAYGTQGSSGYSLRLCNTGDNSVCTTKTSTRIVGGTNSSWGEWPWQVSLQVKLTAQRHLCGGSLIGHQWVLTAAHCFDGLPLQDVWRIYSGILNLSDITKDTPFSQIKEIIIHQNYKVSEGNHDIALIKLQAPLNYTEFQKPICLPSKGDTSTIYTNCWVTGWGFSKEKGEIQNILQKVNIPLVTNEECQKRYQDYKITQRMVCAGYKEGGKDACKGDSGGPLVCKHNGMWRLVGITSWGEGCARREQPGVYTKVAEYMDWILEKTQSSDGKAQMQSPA", "assay": "Kallikrein inhibition assay (thioester substrate)", "assay_type": "biochemical", "conditions": "kallikrein 0.02 units/mL; read-out: Kallikrein (Serine Protease Inhibitory Data, IC50)", "method": "as §1, §2, §3, §4, §5"}, "[6]": {"biological_target": "Thrombin (Homo sapiens, UniProt P00734)", "assay": "Thrombin inhibition assay (N-Benzoyl-Phe-Val-Arg-p-nitroanilide substrate)", "assay_type": "biochemical", "conditions": "thrombin 12.5 U/ml, pH 7.5; read-out: Thrombin (Serine Protease Inhibitory Data, IC50)", "method": "as §1, §2, §3, §4, §5"}, "[7]": {"biological_target": "Factor B (Homo sapiens, UniProt P00751)", "sequence (P00751 26-764)": "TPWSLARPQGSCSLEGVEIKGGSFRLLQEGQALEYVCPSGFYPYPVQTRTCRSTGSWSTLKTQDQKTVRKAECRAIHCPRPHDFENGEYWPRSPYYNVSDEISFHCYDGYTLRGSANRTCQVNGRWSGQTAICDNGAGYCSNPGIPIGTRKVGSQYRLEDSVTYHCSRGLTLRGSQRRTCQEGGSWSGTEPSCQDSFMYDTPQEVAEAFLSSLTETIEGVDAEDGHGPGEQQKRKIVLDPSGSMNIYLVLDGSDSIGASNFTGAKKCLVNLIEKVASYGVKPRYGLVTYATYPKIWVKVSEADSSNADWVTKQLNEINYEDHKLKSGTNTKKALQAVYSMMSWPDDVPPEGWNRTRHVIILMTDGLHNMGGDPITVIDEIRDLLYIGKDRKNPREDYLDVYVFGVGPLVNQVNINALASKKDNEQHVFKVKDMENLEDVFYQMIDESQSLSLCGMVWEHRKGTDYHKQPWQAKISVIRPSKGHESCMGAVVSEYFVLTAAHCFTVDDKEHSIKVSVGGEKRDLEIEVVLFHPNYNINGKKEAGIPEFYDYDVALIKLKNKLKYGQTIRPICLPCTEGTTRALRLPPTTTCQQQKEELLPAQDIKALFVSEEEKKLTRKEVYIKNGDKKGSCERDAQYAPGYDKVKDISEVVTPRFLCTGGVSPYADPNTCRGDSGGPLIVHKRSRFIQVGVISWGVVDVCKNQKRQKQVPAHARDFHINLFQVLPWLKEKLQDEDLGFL", "conditions": "Ikari, N. et al. Immunology 49: 685-691, 1983; cited from earlier work"}, "[8]": {"biological_target": "T2, Factor D", "conditions": "Inagi, R et al, Nephron 66: 285-290, 1994; cited from earlier work"}}, "note": "Where two headings read alike, the source gives them in different places."}
{"compound": "N=C(N)c1ccc2cc(OC(=O)c3ccc(N=C(N)N)cc3)ccc2c1", "note": "[nafamostat, 6′-amidino-2-naphthyl-p-guanidinobenzoate, reference compound]", "values": [{"measurement": "IC50", "setting": "[1]", "value": 0.114, "unit": "µM"}, {"measurement": "IC50", "setting": "[2]", "value": 11, "unit": "µM"}, {"measurement": "IC50", "setting": "[3]", "value": 1.01, "unit": "µM"}, {"measurement": "IC50", "setting": "[4]", "value": 0.022, "unit": "µM"}, {"measurement": "IC50", "setting": "[5]", "value": 0.012, "unit": "µM"}, {"measurement": "IC50", "setting": "[6]", "value": 0.678, "unit": "µM"}, {"measurement": "IC50", "setting": "[7]", "value": 60, "unit": "µM"}, {"measurement": "IC50", "setting": "[8]", "value": 25, "unit": "µM"}]}
